# Reference: patent publication US20240376052A1, “N-SUBSTITUTED INDOLE DERIVATIVES AS SEROTONERGIC AGENTS USEFUL FOR THE TREATMENT OF DISORDERS RELATED THERETO” (Mindset Pharma Inc., priority 2021, published 2024)
# Where two headings read alike, the source gives them in different places.
# Key:
# C57BL/6J mice = assay: Mouse head twitch; type: in vivo; settings: mouse; for duration of HT expression: at 10-30 mg/kg; for head twitch response: doses of up to 30 mg/kg
# Description: (§1) The effect of different doses of representative compounds of Formula I were evaluated on head-twitch response (HTR) and other behavioural responses indicative of serotonin syndrome as behavior-based models of psychedelic activity.
# Male, C57BL/6J mice (body weight range 20-30 g) were dosed with the appropriate dose of test article, and following a 1-minute pre-treatment time, placed in individual observation chambers. Animals were visually assessed for the incidence head twitches continuously over a 1 hr period. Head twitches were defined as a rapid jerk of the head which was not elicited by an external tactile stimulus (Come and Pickering, Psychopharmacologia, 1967, 11(1): 65-78). Each head twitch was individually counted by a trained observer, and the data expressed as the mean+SEM of 6-10 mice per group. Mice were used in a single experiment only.
# Sprague-Dawley rats = assay: Drug discrimination in the rat (5-MeO-DMT cue); type: in vivo; settings: for dose required to show generalization to the 5-MeO-DMT cue: oral administration; for ED50: Rattus norvegicus, read-out: ED50, generalization to the 5-MeO-DMT cue
# Description: Male Sprague-Dawley rats were initially food restricted by presentation of 18-20 g food at day end (single housing). After 7 days acclimatisation to the food restriction procedure, they were trained daily to lever press for food (45 mg Bioserve pellet) in standard 2-lever operant conditioning chambers controlled by Med-PC software over a period of 1 week (Med. Associates Ins., St. Albans, VT). The rats were trained to lever press for food to an FR10 value (i.e 10 lever presses for a single food reward). Once stable food responding was acquired to both response levers, discrimination training began. […] Training sessions lasted 30-min or until the delivery of 50 pellets and continued until the animals attained appropriate stimulus control (defined as six consecutive sessions where animals made no more than 16 lever presses before the delivery of the first reward, and at least 95% total responses on the appropriate lever). The rats continued to receive daily food ration in their home cage at day end.
# Once trained, tests of substitution were conducted. […] Test sessions continued until 50 pellets had been obtained or 30 min had elapsed. During these sessions response rate was also measured.
# mice [1] = assay: Mouse 5-HT syndrome assay; type: in vivo; settings: for signs of 5-HT syndrome: doses of up to 30 mg/kg
# Description: as §1
# human 5-HT2A receptor = human 5-HT2A receptor (Homo sapiens (Human), UniProt P28223); assay: Human 5-HT2A radioligand binding assay ([3H]-ketanserin)
# mice [2] = assay: Mouse locomotor activity and rearing assay; settings: 1-30 mg/kg, compared with 5-MeO-DMT
# [3] = Liver microsomes stability, dog; settings: for Remaining Percentage (%): Dog
# [4] = Liver microsomes stability, human; settings: for Remaining Percentage (%): Human
# Description: (§2) The objective of this study was to estimate in vitro metabolic stability of representative compounds of the application in pooled human and male mouse liver microsomes. The concentrations of parent compounds in reaction systems were evaluated by LC-MS/MS for estimating the stability in pooled human and male mouse liver microsomes. The in vitro intrinsic clearances of test compounds were determined as well.
# (§3) A master solution in the “Incubation Plate” containing phosphate buffer, ultra-pure H2O, MgCl2 solution and liver microsomes was made according to Table 3. The mixture was pre-warmed at 37° C. water bath for 5 minutes.
# (§4) 40 μL of 10 mM NADPH solution was added to each well. The final concentration of NADPH was 1 mM. The negative control samples were prepared by replacing NADPH with 40 μL of ultra-pure H2O. Samples were prepared in duplicate. Negative controls were prepared in singlet.
# (§5) The reaction was started with the addition of 4 μL of 200 μM test compounds or control compounds to each master solution to get the final concentration of 2 μM. This study was performed in duplicate.
# (§6) Aliquots of 50 μL were taken from the reaction solution at 0, 15, 30, 45 and 60 minutes. The reaction solutions were stopped by the addition of 4 volumes of cold methanol with IS (100 nM alprazolam, 200 nM imipramine, 200 nM labetalol and 2 μM ketoprofen). Samples were centrifuged at 3,220 g for 40 minutes. Aliquot of 90 μL of the supernatant was mixed with 90 μL of ultra-pure H2O and then was used for LC-MS/MS analysis.
# (§7) LC/MS analysis was performed for all samples from this study using a Shimadzu liquid chromatograph separation system equipped with degasser DGU-20A5R; solvent delivery unit LC-30AD; system controller SIL-30AC; column oven CTO-30A; CTC Analytics HTC PAL System. Mass spectrometric analysis was performed using an Triple Quad™ 5500 instrument.
# (§8) All calculations were carried out using Microsoft Excel. Peak area ratios of test compound to internal standard (listed in the below table) were determined from extracted ion chromatograms.
# (§9) All calculations were carried out using Microsoft Excel. Peak areas were determined from extracted ion chromatograms. The slope value, k, was determined by linear regression of the natural logarithm of the remaining percentage of the parent drug vs. incubation time curve.
# (§10) The in vitro half-life (in vitro t1/2) was determined from the slope value:
# (§11) Conversion of the in vitro t1/2(min) into the in vitro intrinsic clearance (in vitro CLint, in μL/min/mg proteins) was done using the following equation (mean of duplicate determinations): […]
# [5] = Liver microsomes stability, rat; settings: for Remaining Percentage (%): Rat
# Description: as §2, §3, §4, §5, §6, §7, §8, §9, §10, §11
# [6] = Liver microsomes stability, mouse; settings: for Remaining Percentage (%): Mouse
# Description: as §2, §3, §4, §5, §6, §7, §8, §9, §10, §11
smiles,measurement,setting,value
"COc1ccc2[nH]cc(CCN(C)C)c2c1 [Compound 5-MeO-DMT, 5-methoxy-dimethoxytryptamine, reference compound]","ED50, head twitch response",C57BL/6J mice; SC,8 mg/kg
same,duration of HT expression,C57BL/6J mice,0 to 20 min
same,"ED50, generalization to the 5-MeO-DMT cue","Sprague-Dawley rats; SC administration, FIG. 8",~0.2 mg/kg
same,dose required to show generalization to the 5-MeO-DMT cue,Sprague-Dawley rats; FIG. 8,10 mg/kg
"CCCCC/C=C\C/C=C\CCCCCCCC(=O)n1cc(CCN(C)C)c2cc(OC)ccc21 [Compound I-1, (9Z,12Z)-1-(3-(2-(Dimethylamino)ethyl)-5-methoxy-1H-indol-1-yl)octadeca-9,12-dien-1-one]","signs of 5-HT syndrome (whole body twitches, FPT, Straub tail)",mice [1]; up to 60 mg/kg SC,did not induce signs of 5-HT syndrome
same,head twitch response expression,C57BL/6J mice; 1-60 mg/kg SC,robust head twitch response
same,ED50,"C57BL/6J mice; SC, read-out: ED50, head twitch response",2.8 mg/kg
same,duration of HT expression,C57BL/6J mice,0 to 30 min
same,IC50,human 5-HT2A receptor,< 2000 nM
same,motor activity or rearing,mice [2],did not reduce motor activity or rearing to the same extent as 5-MeO-DMT
"[2H]C([2H])(c1cn(C(=O)CCCCCCC/C=C\C/C=C\CCCCC)c2ccccc12)[C@H]1CCCN1C([2H])([2H])[2H] [Compound I-2, (9Z,12Z)-1-(3-(((R)-1-(Methyl-d3)pyrrolidin-2-yl)methyl-d2)-1H-indol-1-yl)octadeca-9,12-dien-1-one]",signs of 5-HT syndrome,mice [1],no signs of 5-HT syndrome
same,head twitch response,C57BL/6J mice,robust head twitch response
same,Predicted hepatic CL,[3]; Dog liver microsomes,22.14 mL/min/kg
same,Remaining Percentage (%),"[3]; With NADPH, 0 min",100.00%
same,Remaining Percentage (%),"[3]; With NADPH, 30 min",66.91%
same,Remaining Percentage (%),"[3]; With NADPH, 60 min",39.08%
same,Remaining Percentage (%),"[3]; Without NADPH, 0 min",100.00%
same,Remaining Percentage (%),"[3]; Without NADPH, 30 min",94.42%
same,Remaining Percentage (%),"[3]; Without NADPH, 60 min",91.63%
same,CLint scaled at 2 μM,"[3]; dog, microsomes",78.1 mL/min/kg
same,half-life at 2 μM,"[3]; dog, microsomes",44.3 min
same,microsomal CLint at 2 μM,"[3]; dog, microsomes",31.3 µL/min/mg
same,ED50,Sprague-Dawley rats,~30 mg/kg
same,level of partial generalization to the 5-MeO-DMT cue,"Sprague-Dawley rats; rats trained to 1 mg/kg 5-MeO-DMT vs saline, FIG. 7",~60%
same,Predicted hepatic CL,[4]; Human liver microsomes,5.79 mL/min/kg
same,Remaining Percentage (%),"[4]; With NADPH, 0 min",100.00%
same,Remaining Percentage (%),"[4]; With NADPH, 30 min",87.61%
same,Remaining Percentage (%),"[4]; With NADPH, 60 min",82.52%
same,Remaining Percentage (%),"[4]; Without NADPH, 0 min",100.00%
same,Remaining Percentage (%),"[4]; Without NADPH, 30 min",114.91%
same,Remaining Percentage (%),"[4]; Without NADPH, 60 min",83.75%
same,CLint scaled at 2 μM,"[4]; human, microsomes",8.03 mL/min/kg
same,half-life at 2 μM,"[4]; human, microsomes",216 min
same,microsomal CLint at 2 μM,"[4]; human, microsomes",6.4 µL/min/mg
same,Predicted hepatic CL,[5]; Rat liver microsomes,27.34 mL/min/kg
same,Remaining Percentage (%),"[5]; With NADPH, 0 min",100.00%
same,Remaining Percentage (%),"[5]; With NADPH, 30 min",56.08%
same,Remaining Percentage (%),"[5]; With NADPH, 60 min",40.37%
same,Remaining Percentage (%),"[5]; Without NADPH, 0 min",100.00%
same,Remaining Percentage (%),"[5]; Without NADPH, 30 min",94.64%
same,Remaining Percentage (%),"[5]; Without NADPH, 60 min",84.47%
same,CLint scaled at 2 μM,"[5]; rat, microsomes",54.2 mL/min/kg
same,half-life at 2 μM,"[5]; rat, microsomes",45.8 min
same,microsomal CLint at 2 μM,"[5]; rat, microsomes",30.2 µL/min/mg
same,IC50,human 5-HT2A receptor,< 2000 nM
same,Predicted hepatic CL,[6]; Mouse liver microsomes,50.97 mL/min/kg
same,Remaining Percentage (%),"[6]; With NADPH, 0 min",100.00%
same,Remaining Percentage (%),"[6]; With NADPH, 30 min",71.53%
same,Remaining Percentage (%),"[6]; With NADPH, 60 min",44.66%
same,Remaining Percentage (%),"[6]; Without NADPH, 0 min",100.00%
same,Remaining Percentage (%),"[6]; Without NADPH, 30 min",95.81%
same,Remaining Percentage (%),"[6]; Without NADPH, 60 min",80.93%
same,CLint scaled at 2 μM,"[6]; male, mouse, microsomes",118 mL/min/kg
same,half-life at 2 μM,"[6]; male, mouse, microsomes",51.6 min
same,microsomal CLint at 2 μM,"[6]; male, mouse, microsomes",26.9 µL/min/mg
"[2H]C([2H])(c1cn(C(=O)CCCCCCC/C=C\C/C=C\CCCCC)c2ccc(OC)cc12)[C@H]1CCCN1C([2H])([2H])[2H] [Compound I-3, (9Z,12Z)-1-(5-Methoxy-3-(((R)-1-(methyl-d3)pyrrolidin-2-yl)methyl-d2)-1H-indol-1-yl)octadeca-9,12-dien-1-one]",signs of 5-HT syndrome,mice [1],no signs of 5-HT syndrome
same,head twitch response,C57BL/6J mice,robust head twitch response
same,ED50,"Sprague-Dawley rats; SC administration, FIG. 8",~6 mg/kg
same,dose required to show generalization to the 5-MeO-DMT cue,Sprague-Dawley rats; FIG. 8,100 mg/kg
same,IC50,human 5-HT2A receptor,< 2000 nM
